For data set [1], the system named is Mycobacterium tuberculosis. In words: Antimicrobial activity against Mycobacterium tuberculosis H37Rv at assessed as growth inhibition at […] following 24 days oxygen depletion by Wayne method relative to control. It is filed as functional. Further details: scale not given: the % may be the effect or the level left.
A short description of data set [2]: Oral bioavailability in mouse at 300 mg/kg, po measured after 2 hrs. Conditions: in vivo, read-out: Drug uptake. It is filed as ADME, organism-based.
Data set [3] deals with Mycobacterium tuberculosis. In words: Antimicrobial activity against Mycobacterium tuberculosis H37Rv by alamar blue assay. It is filed as functional. A general note: Alamar Blue is a resazurin reagent that responds to reducing activity.
Data set [4] relates to Mycobacterium tuberculosis. In words: Antimicrobial activity against Mycobacterium tuberculosis Erdman injected into gamma interferon gene knockout C57BL/6 mouse assessed as bacterial load in lung of mouse at 300 mg/kg measured 9 days post drug treatment. It is filed as functional.
A short description of data set [5]: Oral bioavailability in mouse at 300 mg/kg, po measured after 30 mins. Conditions: in vivo, read-out: Drug uptake. It is filed as ADME, organism-based.
Data set [6] relates to Mycobacterium tuberculosis. In words: Antimicrobial activity against Mycobacterium tuberculosis Erdman injected into gamma interferon gene knockout C57BL/6 mouse assessed as bacterial load in spleen of mouse at 300 mg/kg measured 9 days post drug treatment. It is filed as functional.
In data set [7] the test system is Staphylococcus aureus. In words: Antimicrobial activity against Staphylococcus aureus ATCC 29213 by broth macrodilution method. It is filed as functional.
The test system of data set [8] is Pseudomonas aeruginosa. In words: Antimicrobial activity against Pseudomonas aeruginosa ATCC 27853 by broth macrodilution method. It is filed as functional.
Data set [9] deals with Mycobacterium tuberculosis. In words: Antimicrobial activity against Mycobacterium tuberculosis Erdman injected into gamma interferon gene knockout C57BL/6 mouse assessed as bacterial load in spleen of mouse at 100 mg/kg measured 9 days post drug treatment. It is filed as functional.
Data set [10] relates to Escherichia coli. In words: Antimicrobial activity against Escherichia coli ATCC 25922 by broth macrodilution method. It is filed as functional.
The subject of data set [11] is Mycobacterium tuberculosis. In words: Antimicrobial activity against Mycobacterium tuberculosis H37Rv by macrodilution method. It is filed as functional.
In data set [12] the test system is Mycobacterium tuberculosis. In words: Antimicrobial activity against Mycobacterium tuberculosis Erdman injected into gamma interferon gene knockout C57BL/6 mouse assessed as bacterial load in lung of mouse at 100 mg/kg measured 9 days post drug treatment. It is filed as functional.
Data set [13] can be described thus: Oral bioavailability in mouse at 25 mg/kg, po measured after 30 mins. It is filed as ADME, organism-based. Conditions: in vivo, read-out: Drug uptake.
Data set [14] relates to Mycobacterium tuberculosis. In words: Antimicrobial activity against Mycobacterium tuberculosis Erdman injected into gamma interferon gene knockout C57BL/6 mouse assessed as bacterial load in spleen of mouse at 25 mg/kg measured 9 days post drug treatment. It is filed as functional.
Data set [15] can be described thus: Oral bioavailability in mouse at 25 mg/kg, po measured after 2 hrs. Conditions: in vivo, read-out: Drug uptake. It is filed as ADME, organism-based.
Data set [16] deals with Mycobacterium tuberculosis. In words: Antimicrobial activity against Mycobacterium tuberculosis Erdman injected into gamma interferon gene knockout C57BL/6 mouse assessed as bacterial load in lung of mouse at 25 mg/kg measured 9 days post drug treatment. It is filed as functional.
[17] abbreviates: Mycobacterium tuberculosis, H37Rv, read-out: MIC.

In brackets after ≈: the same amount, converted by molar mass.

In general, MIC refers to the lowest concentration found to suppress growth. Take `COc1c(N2C[C@@H]3CCCN[C@@H]3C2)c(F)cc2c(=O)c(C(=O)O)cn(C3CC3)c12` [MOXIFLOXACIN]: the Activity in [1] stood at 2.5%. In data set [2], the concentration at 2 h was determined as 9600 ng/mL. The MIC in [3] was found to be 0.1 µg/mL (≈ 0.249 µM); in [3] (setting [17]) it was 0.12 µg/mL (≈ 0.299 µM). Also, the log10cfu turned out to be 2.37 in [4] and 2.43 in [6]. In addition, the concentration at 0.5 h in [5] was 19600 ng/mL.
Regarding `CO[C@H]1/C=C/O[C@@]2(C)Oc3c(C)c(O)c4c(O)c(c(/C=N/N5CCN(C6CCCC6)CC5)c(O)c4c3C2=O)NC(=O)/C(C)=C\C=C\[C@H](C)[C@H](O)[C@@H](C)[C@@H](O)[C@@H](C)[C@H](OC(C)=O)[C@@H]1C` [RIFAPENTINE], the Activity in data set [1] amounted to 2.5%.
Still for that read-out and setting: the value for `CO[C@H]1/C=C/O[C@@]2(C)Oc3c(C)c(O)c4c(O)c(c(/C=N/N5CCN(C)CC5)c(O)c4c3C2=O)NC(=O)/C(C)=C\C=C\[C@H](C)[C@H](O)[C@@H](C)[C@@H](O)[C@@H](C)[C@H](OC(C)=O)[C@@H]1C` [RIFAMPIN] was 5.6%; that for `O=C(O)c1cn(C2CC2)c2cc(N3CCNCC3)c(F)cc2c1=O` [CIPROFLOXACIN] was 83%; that for `Cc1ncc([N+](=O)[O-])n1CCO` [METRONIDAZOLE] was 36%.
`COc1c(N2CCNC(C)C2)c(F)cc2c(=O)c(C(=O)O)cn(C3CC3)c12` (configuration not stated) [GATIFLOXACIN]: in data set [1], the Activity was 41%.
Still for that read-out and setting: as for `CN[C@@H]1[C@H](O[C@H]2[C@H](O[C@H]3[C@H](O)[C@@H](O)[C@H](N=C(N)N)[C@@H](O)[C@@H]3N=C(N)N)O[C@@H](C)[C@]2(O)C=O)O[C@@H](CO)[C@H](O)[C@H]1O` [STREPTOMYCIN], the figure is 4.2%.
Take `Cc1c(N2CC3=CCCN[C@H]3C2)c(F)cn2c(=O)c(C(=O)O)cc(C3CC3)c12`: the MIC in data set [7] was less than 0.015 µg/mL; in data set [3] (setting [17]) it was less than 0.025 µg/mL; in data set [8] it was less than 0.015 µg/mL; in data set [10], less than 0.015 µg/mL; in data set [11], 0.041 µg/mL (≈ 0.107 µM). In addition, in data set [1], the Activity was determined as 1.7%. In [2], the concentration at 2 h turned out to be 1640 ng/mL. In addition, the log10cfu in [4] came out at 6.13; in data set [9], 5.92; in [6] it was 4.91; in [12], 7.25. Also, the concentration at 0.5 h in data set [5] was greater than 13100 ng/mL.
For the compound `NNC(=O)c1ccncc1` [ISONIAZID], the Activity in data set [1] turned out to be 70%. For the same compound, in [13], the concentration at 0.5 h was greater than 13100 ng/mL. The values for the MIC in data set [3] and in [3] (setting [17]) were 0.041 µg/mL (≈ 0.299 µM) and 0.048 µg/mL (≈ 0.35 µM), respectively. The log10cfu in data set [14] stood at 3.14; in data set [16] it was 5.8. Also, the concentration at 2 h in data set [15] came to 1640 ng/mL.

Values taken from ChEMBL document CHEMBL1255311, “Evaluation of a 2-pyridone, KRQ-10018, against Mycobacterium tuberculosis in vitro and in vivo” (Antimicrob Agents Chemother, 2008).
